According to US20250034216A1, “STEREOSELECTIVE COVALENT LIGANDS FOR ONCOGENIC AND IMMUNOLOGICAL PROTEINS” (The Scripps Research Institute, priority 2021, published 2025):

Legend:
[1] = target: T1, ITPR2_C579 (Homo sapiens, UniProt Q14571); experiment: IA-DTB cysteine engagement; assay type: binding; details: 22Rv1 cells, 20 μM probe, 1 h, relative to DMSO
T1 construct: endogenous in cells; host or cells: 22Rv1
Method in brief: (§1)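 In-situ probe treatment of cells; lysate 2 mg/mL, IA-DTB 1 h RT; MeOH/CHCl3 precipitation, DTT/iodoacetamide, trypsin; streptavidin enrichment; TMT labeling, high-pH fractionation. Ratio = TMT reporter intensity / mean DMSO channels, median-normalized.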

[2] = target: T2, CEP128_C915 (Homo sapiens, UniProt Q6ZU80); experiment: IA-DTB cysteine engagement; assay type: binding; details: 22Rv1 cells, 20 μM probe, 1 h, relative to DMSO
T2 construct: endogenous in cells; host or cells: 22Rv1
T2 sequence (Q6ZU80 1-1094): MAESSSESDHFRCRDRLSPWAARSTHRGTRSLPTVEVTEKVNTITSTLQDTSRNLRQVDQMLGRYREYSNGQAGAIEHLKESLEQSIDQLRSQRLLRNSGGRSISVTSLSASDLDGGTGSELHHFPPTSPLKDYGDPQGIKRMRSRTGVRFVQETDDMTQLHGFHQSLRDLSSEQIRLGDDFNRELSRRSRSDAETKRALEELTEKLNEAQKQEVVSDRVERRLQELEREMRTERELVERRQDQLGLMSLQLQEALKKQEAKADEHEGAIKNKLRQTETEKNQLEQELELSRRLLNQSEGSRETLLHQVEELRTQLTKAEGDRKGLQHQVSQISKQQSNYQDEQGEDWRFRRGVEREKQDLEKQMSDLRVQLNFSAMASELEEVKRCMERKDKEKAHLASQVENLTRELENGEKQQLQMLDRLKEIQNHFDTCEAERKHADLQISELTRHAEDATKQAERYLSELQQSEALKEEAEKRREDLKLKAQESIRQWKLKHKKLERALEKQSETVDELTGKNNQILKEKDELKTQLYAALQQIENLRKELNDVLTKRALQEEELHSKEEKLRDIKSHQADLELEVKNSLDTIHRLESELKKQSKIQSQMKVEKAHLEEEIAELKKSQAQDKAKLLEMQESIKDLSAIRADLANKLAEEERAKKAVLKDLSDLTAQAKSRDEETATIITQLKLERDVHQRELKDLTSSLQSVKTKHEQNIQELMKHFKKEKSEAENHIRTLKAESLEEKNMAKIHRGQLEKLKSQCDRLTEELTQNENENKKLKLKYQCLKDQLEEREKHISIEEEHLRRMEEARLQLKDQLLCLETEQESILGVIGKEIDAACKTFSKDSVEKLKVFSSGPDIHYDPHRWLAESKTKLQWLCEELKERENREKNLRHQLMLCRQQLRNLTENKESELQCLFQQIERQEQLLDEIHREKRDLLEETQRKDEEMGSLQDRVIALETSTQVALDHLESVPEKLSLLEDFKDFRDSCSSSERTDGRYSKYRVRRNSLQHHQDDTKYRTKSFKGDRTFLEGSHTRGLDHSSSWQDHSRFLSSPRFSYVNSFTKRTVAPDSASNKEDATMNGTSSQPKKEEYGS
Method in brief: as §1

T1 sequence (Q14571 whole entry): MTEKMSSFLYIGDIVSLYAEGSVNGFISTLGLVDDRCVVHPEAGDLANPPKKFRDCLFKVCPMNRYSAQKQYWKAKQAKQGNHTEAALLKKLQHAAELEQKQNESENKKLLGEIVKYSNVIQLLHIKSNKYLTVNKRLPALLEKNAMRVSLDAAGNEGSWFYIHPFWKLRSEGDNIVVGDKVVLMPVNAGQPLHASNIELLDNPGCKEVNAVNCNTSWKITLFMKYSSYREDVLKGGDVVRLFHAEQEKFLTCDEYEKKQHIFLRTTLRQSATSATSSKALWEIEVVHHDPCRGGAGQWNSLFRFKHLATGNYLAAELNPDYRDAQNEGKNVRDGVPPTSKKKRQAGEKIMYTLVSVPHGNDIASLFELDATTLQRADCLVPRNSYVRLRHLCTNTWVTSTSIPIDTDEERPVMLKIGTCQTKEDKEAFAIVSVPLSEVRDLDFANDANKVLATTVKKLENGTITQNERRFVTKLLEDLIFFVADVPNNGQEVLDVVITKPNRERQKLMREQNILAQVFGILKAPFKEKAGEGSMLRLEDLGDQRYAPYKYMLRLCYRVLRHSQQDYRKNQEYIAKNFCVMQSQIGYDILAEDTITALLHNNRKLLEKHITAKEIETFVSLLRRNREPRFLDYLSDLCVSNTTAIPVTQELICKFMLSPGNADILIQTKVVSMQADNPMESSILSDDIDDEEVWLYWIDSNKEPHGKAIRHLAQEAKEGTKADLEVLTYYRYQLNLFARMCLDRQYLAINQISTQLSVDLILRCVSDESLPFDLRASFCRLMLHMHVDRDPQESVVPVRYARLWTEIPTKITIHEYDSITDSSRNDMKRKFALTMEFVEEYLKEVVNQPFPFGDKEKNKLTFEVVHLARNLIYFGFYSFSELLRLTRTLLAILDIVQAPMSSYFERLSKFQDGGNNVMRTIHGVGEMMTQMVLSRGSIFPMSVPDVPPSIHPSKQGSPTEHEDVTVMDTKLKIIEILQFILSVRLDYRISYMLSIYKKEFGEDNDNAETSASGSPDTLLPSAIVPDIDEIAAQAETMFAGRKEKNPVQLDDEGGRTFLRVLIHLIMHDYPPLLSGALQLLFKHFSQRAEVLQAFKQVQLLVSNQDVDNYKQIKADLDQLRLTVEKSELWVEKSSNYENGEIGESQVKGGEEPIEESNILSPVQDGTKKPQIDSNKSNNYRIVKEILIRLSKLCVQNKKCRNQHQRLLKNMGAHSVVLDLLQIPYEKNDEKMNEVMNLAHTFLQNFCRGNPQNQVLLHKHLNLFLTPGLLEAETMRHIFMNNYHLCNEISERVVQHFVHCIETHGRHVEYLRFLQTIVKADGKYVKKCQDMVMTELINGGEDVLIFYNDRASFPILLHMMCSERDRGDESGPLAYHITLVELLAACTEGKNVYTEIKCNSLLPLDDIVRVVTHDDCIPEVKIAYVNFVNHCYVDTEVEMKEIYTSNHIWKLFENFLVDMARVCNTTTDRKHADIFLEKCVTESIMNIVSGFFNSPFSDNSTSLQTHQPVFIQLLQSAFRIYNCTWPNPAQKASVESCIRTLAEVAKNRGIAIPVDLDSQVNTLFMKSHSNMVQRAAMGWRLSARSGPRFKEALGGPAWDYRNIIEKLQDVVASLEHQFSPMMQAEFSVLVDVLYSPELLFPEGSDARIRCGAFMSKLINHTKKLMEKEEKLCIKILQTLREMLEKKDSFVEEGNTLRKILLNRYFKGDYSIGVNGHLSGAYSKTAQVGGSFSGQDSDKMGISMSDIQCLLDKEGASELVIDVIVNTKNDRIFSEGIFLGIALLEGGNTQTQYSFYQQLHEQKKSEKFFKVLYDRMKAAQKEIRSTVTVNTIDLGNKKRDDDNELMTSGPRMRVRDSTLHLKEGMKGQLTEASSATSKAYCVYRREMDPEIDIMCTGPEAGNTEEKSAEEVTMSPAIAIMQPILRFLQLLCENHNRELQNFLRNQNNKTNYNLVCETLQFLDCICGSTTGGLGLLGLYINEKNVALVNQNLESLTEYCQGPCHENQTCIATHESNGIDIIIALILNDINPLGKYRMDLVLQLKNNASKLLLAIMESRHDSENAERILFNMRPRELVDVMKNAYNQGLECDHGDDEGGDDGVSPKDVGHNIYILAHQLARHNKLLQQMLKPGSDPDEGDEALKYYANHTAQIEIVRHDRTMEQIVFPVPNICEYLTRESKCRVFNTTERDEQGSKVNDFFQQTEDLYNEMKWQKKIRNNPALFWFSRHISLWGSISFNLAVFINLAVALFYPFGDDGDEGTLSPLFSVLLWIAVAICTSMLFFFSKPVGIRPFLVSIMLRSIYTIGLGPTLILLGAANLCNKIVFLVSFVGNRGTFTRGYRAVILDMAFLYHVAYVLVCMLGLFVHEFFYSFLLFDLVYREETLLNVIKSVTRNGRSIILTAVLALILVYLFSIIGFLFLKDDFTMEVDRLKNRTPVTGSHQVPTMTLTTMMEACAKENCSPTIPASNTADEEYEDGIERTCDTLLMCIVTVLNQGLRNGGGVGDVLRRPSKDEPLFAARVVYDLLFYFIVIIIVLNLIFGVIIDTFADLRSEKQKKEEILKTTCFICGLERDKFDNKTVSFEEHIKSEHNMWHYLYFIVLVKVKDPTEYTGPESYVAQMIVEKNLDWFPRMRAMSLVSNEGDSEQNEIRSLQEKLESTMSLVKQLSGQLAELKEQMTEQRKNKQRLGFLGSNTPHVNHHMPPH

Row | % engagement ITPR2_C579 [1] | % engagement CEP128_C915 [2] | Structure (SMILES)
1 | 7.75% | −13% | C=CC(=O)N1C[C@@H](c2ccc(Br)cc2)[C@H]1C(=O)Nc1cccc2cccnc12 [MY-1A, (2S,3R)-1-acryloyl-3-(4-bromophenyl)-N-(quinolin-8-yl)azetidine-2-carboxamide]
2 | 11.25% | 67.5% | C=CC(=O)N1C[C@H](c2ccc(Br)cc2)[C@@H]1C(=O)Nc1cccc2cccnc12 [MY-1B, (2R,3S)-1-acryloyl-3-(4-bromophenyl)-N-(quinolin-8-yl)azetidine-2-carboxamide]
3 | 70.75% | 25% | C=CC(=O)N1C[C@H](c2ccc(Br)cc2)[C@H]1C(=O)Nc1cccc2cccnc12 [MY-3B, (2S,3S)-1-acryloyl-3-(4-bromophenyl)-N-(quinolin-8-yl)azetidine-2-carboxamide]
4 | 4.5% | 7% | C=CC(=O)N1C[C@H](c2ccc(Br)cc2)[C@H]1C(=O)Nc1cccc2cccnc12 [MY-3A, (2S,3S)-1-acryloyl-3-(4-bromophenyl)-N-(quinolin-8-yl)azetidine-2-carboxamide]
